We go through eight molecules from patent US11873295B2, “Allosteric chromenone inhibitors of phosphoinositide 3-kinase (PI3K) for the treatment of disease” (Petra Pharma Corporation, priority 2021, dated 2024).

Structures are written as SMILES. pIC50: −log10 of the molar value. A value given as a limit tells only on which side of the number the result lay.

The pIC50 is −log10 of the IC50, conventionally taken in molar units.

Experiment [1] concerns the target T1, human full length PIK3KA Wild-type (p110α/p85α complex) (Homo sapiens, UniProt P42336).
T1 construct: Recombinant, catalytically active human full length PIK3KA Wild-type and H1047R mutant were purchased as 1:1 complex; 6xHis (N); purchased EMD Millipore Sigma 14-602M
Nature of the experiment: PI3K-alpha kinase (PIK3CA) biochemical activity, wild-type, ADP-Glo. As to conditions: PI3K-α (PIK3CA) biochemical, Soy PI lipid substrate. The method in brief:
(§1)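 ADP formation, read by ADP-Glo, is run to about 10% ATP turnover at 27 °C with 20 μM ATP and 50 μM PIP2diC8 or soy PI. WT or H1047R p110α/p85α (1–5 nM) is pre-incubated 1 h with compound in HEPES pH 7.4/MgCl2/Triton buffer, 1% DMSO. 10-point 1:3 series, logistic IC50 versus no-enzyme and DMSO controls.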
Background: ADP-Glo turns the ADP formed in a reaction into a luminescent signal.

In experiment [2] the target is T2, human full length PIK3KA H1047R mutant (p110α/p85α complex) (Homo sapiens, UniProt P42336, H1047R).
T2 construct: Recombinant, catalytically active human full length PIK3KA Wild-type and H1047R mutant were purchased as 1:1 complex; 6xHis (N); purchased EMD Millipore Sigma 14-792M
T2 sequence (P42336 whole entry H1047R): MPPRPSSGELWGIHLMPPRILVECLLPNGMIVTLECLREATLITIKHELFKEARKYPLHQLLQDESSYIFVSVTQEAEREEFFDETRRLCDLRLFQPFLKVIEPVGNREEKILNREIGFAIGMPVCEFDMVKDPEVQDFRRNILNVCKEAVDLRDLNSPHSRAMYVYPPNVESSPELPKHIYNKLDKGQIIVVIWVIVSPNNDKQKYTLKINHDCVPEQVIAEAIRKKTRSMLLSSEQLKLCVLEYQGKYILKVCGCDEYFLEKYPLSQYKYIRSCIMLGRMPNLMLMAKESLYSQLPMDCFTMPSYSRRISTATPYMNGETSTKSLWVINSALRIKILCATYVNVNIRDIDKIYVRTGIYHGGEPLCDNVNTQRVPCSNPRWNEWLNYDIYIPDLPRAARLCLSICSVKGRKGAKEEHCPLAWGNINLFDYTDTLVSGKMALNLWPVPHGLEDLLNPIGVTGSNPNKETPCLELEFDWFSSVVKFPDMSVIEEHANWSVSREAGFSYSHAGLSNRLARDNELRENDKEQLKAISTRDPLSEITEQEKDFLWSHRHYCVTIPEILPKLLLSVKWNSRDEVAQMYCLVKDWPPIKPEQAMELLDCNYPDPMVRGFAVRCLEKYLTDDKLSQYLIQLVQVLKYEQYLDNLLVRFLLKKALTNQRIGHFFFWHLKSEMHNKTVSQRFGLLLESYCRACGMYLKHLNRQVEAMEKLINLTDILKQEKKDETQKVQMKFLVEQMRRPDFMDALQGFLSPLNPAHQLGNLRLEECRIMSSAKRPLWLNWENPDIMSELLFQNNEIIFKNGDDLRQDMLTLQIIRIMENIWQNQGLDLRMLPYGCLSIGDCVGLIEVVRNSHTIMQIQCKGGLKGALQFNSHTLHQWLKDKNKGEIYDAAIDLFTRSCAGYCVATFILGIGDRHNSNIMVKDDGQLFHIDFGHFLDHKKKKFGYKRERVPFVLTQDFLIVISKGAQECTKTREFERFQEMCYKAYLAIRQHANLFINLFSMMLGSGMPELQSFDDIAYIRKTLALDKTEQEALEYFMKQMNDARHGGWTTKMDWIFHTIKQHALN
T2 sequence (P27986 whole entry partner): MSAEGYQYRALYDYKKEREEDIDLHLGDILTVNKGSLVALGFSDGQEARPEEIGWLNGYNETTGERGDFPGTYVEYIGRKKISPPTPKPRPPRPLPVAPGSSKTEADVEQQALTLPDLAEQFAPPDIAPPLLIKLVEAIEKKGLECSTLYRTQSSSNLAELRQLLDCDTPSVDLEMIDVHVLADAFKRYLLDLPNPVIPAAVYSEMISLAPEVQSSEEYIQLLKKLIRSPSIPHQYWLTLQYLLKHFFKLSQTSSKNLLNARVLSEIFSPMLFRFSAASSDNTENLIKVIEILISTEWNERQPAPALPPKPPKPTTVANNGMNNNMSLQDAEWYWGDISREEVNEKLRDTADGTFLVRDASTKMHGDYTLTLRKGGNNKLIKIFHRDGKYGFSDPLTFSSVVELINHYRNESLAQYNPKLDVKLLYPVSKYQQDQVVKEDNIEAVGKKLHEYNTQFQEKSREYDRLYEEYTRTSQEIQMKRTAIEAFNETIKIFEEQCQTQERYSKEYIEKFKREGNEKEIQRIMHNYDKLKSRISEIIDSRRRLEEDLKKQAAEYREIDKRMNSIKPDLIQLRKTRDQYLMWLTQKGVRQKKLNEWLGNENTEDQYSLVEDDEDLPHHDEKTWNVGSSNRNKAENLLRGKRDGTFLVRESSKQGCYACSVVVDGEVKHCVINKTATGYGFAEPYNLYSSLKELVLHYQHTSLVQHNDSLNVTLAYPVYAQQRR
Nature of the experiment: PI3K-alpha kinase (PIK3CA) biochemical activity, H1047R mutant, ADP-Glo. As to conditions: PI3K-α (PIK3CA) biochemical, H1047R mutant, Soy PI lipid substrate. The essentials: as §1

Experiment [3] deals with PI3K-α (PIK3CA) in MDA-MB-453 cells. Nature of the experiment: PI3K-alpha kinase (PIK3CA) activity in vitro cell based assay, MDA-MB-453 cells, AlphaLisa SureFire. As to conditions: Homo sapiens, MDA-MB-453, 3 h, 0% FBS, 3 hours treatment, relative IC50. The essentials:
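MDA-MB-453 cells in serum-free MEM with 1 μg/mL insulin treated 3 h with 10-point 1:3 compound dilutions, 0.3% DMSO. Lysates read by AlphaLisa SureFire; percent inhibition relative to DMSO (max) and 1 μM GDC-0032 (min), duplicate means fitted to 4-parameter logistic for relative IC50.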
(In general: In Alpha technology, singlet oxygen from a donor bead excites a nearby acceptor bead.)

Regarding `Cc1cc([C@@H](C)Nc2ccccc2C(=O)O)c2oc(-c3ccc(-c4cn[nH]c4)cc3)c(C)c(=O)c2c1` [Example 162, 2-[[(1R)-1-[3,6-Dimethyl-4-oxo-2-[4-(1H-pyrazol-4-yl)phenyl]chromen-8-yl]ethyl]amino]benzoic acid], the pIC50 is 6.00 to 6.30 in experiment [1], above 6.30 in experiment [2] and above 7.30 in experiment [3].
For `Cc1cc([C@@H](C)Nc2ccccc2C(=O)O)c2oc(-c3ccc(-c4cn[nH]c4)cc3)cc(=O)c2c1` [Example 163, 2-[[(1R)-1-[6-Methyl-4-oxo-2-[4-(1H-pyrazol-4-yl)phenyl]chromen-8-yl]ethyl]amino]benzoic acid] the same measures were 5.30 to 6.00, 6.00 to 6.30 and 7.00 to 7.30.
As for `Cc1cc([C@@H](C)Nc2ccccc2C(=O)O)c2oc(-c3ccc(-c4cnn(C)c4)cc3)c(C)c(=O)c2c1` [Example 164, 2-[[(1R)-1-[3,6-Dimethyl-2-[4-(1-methylpyrazol-4-yl)phenyl]-4-oxo-chromen-8-yl]ethyl]amino]benzoic acid], the pIC50 in experiment [1] is above 6.30; in experiment [2], above 6.30; in experiment [3], above 7.30.
For `Cc1cc([C@@H](C)Nc2ccccc2C(=O)O)c2oc(-c3ccc(-c4c(C)n[nH]c4C)cc3)c(C)c(=O)c2c1` [Example 165, 2-[[(1R)-1-[2-[4-(3,5-Dimethyl-1H-pyrazol-4-yl)phenyl]-3,6-dimethyl-4-oxo-chromen-8-yl]ethyl]amino]benzoic acid], the negative logarithm of the IC50 (pIC50) in experiment [1] was 5.30 to 6.00; in experiment [2] it was above 6.30; in experiment [3] it was above 7.30.
Take `Cc1cc([C@@H](C)Nc2ccccc2C(=O)O)c2oc(-c3cccc(-c4cc[nH]n4)c3)c(C)c(=O)c2c1` [Example 166, 2-[[(1R)-1-[3,6-Dimethyl-4-oxo-2-[3-(1H-pyrazol-3-yl)phenyl]chromen-8-yl]ethyl]amino]benzoic acid]: the negative logarithm of the IC50 (pIC50) is 5.30 to 6.00 in experiment [1], 6.00 to 6.30 in experiment [2] and above 7.30 in experiment [3].
For `Cc1cc([C@@H](C)Nc2ccccc2C(=O)O)c2oc(-c3cccc(-c4cn[nH]c4)c3)c(C)c(=O)c2c1` [Example 167, 2-[[(1R)-1-[3,6-Dimethyl-4-oxo-2-[3-(1H-pyrazol-4-yl)phenyl]chromen-8-yl]ethyl]amino]benzoic acid] the same measures were 6.00 to 6.30, above 6.30 and above 7.30.
For the molecule `Cc1cc([C@@H](C)Nc2ccccc2C(=O)O)c2oc(-c3ccc(-c4ccn[nH]4)cc3)c(C)c(=O)c2c1` [Example 168, 2-[[(1R)-1-[3,6-Dimethyl-4-oxo-2-[4-(1H-pyrazol-5-yl)phenyl]chromen-8-yl]ethyl]amino]benzoic acid], the figures for the pIC50 in experiment [1], in experiment [2] and in experiment [3] were 6.00 to 6.30, above 6.30 and above 7.30, respectively.
`Cc1cc([C@@H](C)Nc2ccccc2C(=O)O)c2oc(-c3ccccc3)c(NCCC(=O)O)c(=O)c2c1` [Example 171, 2-[[(1R)-1-[3-(2-Carboxyethylamino)-6-methyl-4-oxo-2-phenyl-chromen-8-yl]ethyl]amino]benzoic acid 2,2,2-trifluoroacetic acid]: the pIC50 was below 5.00 in experiment [1], 6.00 to 6.30 in experiment [2] and below 6.30 in experiment [3].
